Our source for the Kd values is EP0468497B1, “Peptide-antagonists of bombesin/GRP” (MERRELL PHARMACEUTICALS INC., priority 1990, dated 1992).

Non-standard residues stand in square brackets, D forms with d. Residues, ends and D or L forms follow the SMILES beside them. *: point of attachment. Palmitoyl = CCCCCCCCCCCCCCCC(=O)*; Lauroyl = CCCCCCCCCCCC(=O)*; Octanoyl = CCCCCCCC(=O)* Where only a bound is given, the exact number is not on record here.

The target in this assay is T1, bombesin receptor (Mus musculus, UniProt P21729).
T1 construct: The pancreata from one or more mice were pooled, minced, and homogenized; from tissue; host or cells: mouse pancreas
T1 sequence (P21729 whole entry): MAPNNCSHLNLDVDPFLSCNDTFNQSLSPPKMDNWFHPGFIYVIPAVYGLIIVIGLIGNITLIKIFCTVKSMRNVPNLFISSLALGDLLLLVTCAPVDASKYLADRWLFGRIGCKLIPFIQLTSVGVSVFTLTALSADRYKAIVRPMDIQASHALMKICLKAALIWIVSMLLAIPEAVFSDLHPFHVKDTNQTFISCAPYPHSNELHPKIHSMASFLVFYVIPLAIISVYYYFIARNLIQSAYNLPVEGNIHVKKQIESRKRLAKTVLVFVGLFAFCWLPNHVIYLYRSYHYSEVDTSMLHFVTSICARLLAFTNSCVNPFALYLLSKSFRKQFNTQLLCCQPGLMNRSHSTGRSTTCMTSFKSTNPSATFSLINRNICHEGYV
Nature of the assay: Affinity for the bombesin receptor by competition at the receptor for iodinated GRP (125I-GRP), pancreas membranes. Also on record: species or system mice. To be noted: competition with 125I-GRP, 90 minutes at room temperature, read-out: Bombesin Receptor Binding (Example 5). On the procedure:
The pancreata from one or more mice were pooled, minced, and homogenized in 50 mM HEPES (pH 7.4) containing 120 mM NaCl and 5 mM KCl at 4°C and centrifuged at 37,500 X g for 15 minutes. The pellet was resuspended in 50 mM HEPES (pH 7.4) containing 10 mM EDTA and 300 mM KCl and incubated for 30 minutes at 4°C. The suspension was centrifuged as above and the pellet was washed two times in 50 mM HEPES (pH 7.4) containing protease inhibitors (10 µM phenylmethylsulfonyl fluoride, 1 µM thiorphan, 40 µg/ml bacitracin, 10mM iodoacetic acid and 4 µg/ml leupeptin), and again centrifuged. The tissue was then resuspended in incubation buffer (1ml per 4 mg pancreas) and incubated for 15 minutes at room temperature, then 250 µl was added to each assay tube to commence the assay. The assay tubes contained incubation buffer consisting of 50 mM HEPES (pH 7.4), 0.5% BSA, protease inhibitors, 2 mM MnCl2, 1 µM somatostatin, and concentrations of ^125I-GRP and peptides as needed in a final volume of 500 µl. The assay was allowed to proceed to equilibrium for 90 minutes at room temperature. After this time, the contents of each tube was rapidly filtered over Whatman GF/B filters presoaked in 0.1% polyethyleneimine and the filters were rapidly washed three times with ice-cold 50 mM HEPES (pH 7.4). Filter-bound radioactivity was quantitated in a gamma counter. Competition of iodinated GRP binding by test compounds or standards was expressed as a percentage of ^125I-GRP binding in the absence of peptide. Affinity and maximal binding were calculated with Ligand (Biosoft, Cambridge, UK).
Take `CCCCCCCC(=O)N[C@@H](CCC(N)=O)C(=O)N[C@@H](Cc1c[nH]c2ccccc12)C(=O)N[C@@H](C)C(=O)N[C@H](C(=O)N[C@H](C)C(=O)N[C@@H](Cc1c[nH]cn1)C(=O)N[C@@H](CC(C)C)C(N)=O)C(C)C` [Example 1, N-(n-Octanoyl)-Gln-Trp-Ala-Val-ala-His-Leu-NH2] (Octanoyl-QWAV[dA]HL-NH2): the Kd was not above 50 nM.
Turning to `CCCCCCCCCCCC(=O)N[C@@H](CCC(N)=O)C(=O)N[C@@H](Cc1c[nH]c2ccccc12)C(=O)N[C@@H](C)C(=O)N[C@H](C(=O)N[C@H](C)C(=O)N[C@@H](Cc1c[nH]cn1)C(=O)N[C@@H](CC(C)C)C(N)=O)C(C)C` [Example 2, N-(Lauroyl)-Gln-Trp-Ala-Val-ala-His-Leu-NH2] (Lauroyl-QWAV[dA]HL-NH2), the Kd is not above 500 nM.
For the compound `CCCCCCCCCCCCCCCC(=O)N[C@@H](CCC(N)=O)C(=O)N[C@@H](Cc1c[nH]c2ccccc12)C(=O)N[C@@H](C)C(=O)N[C@H](C(=O)N[C@H](C)C(=O)N[C@@H](Cc1c[nH]cn1)C(=O)N[C@@H](CC(C)C)C(N)=O)C(C)C` [Example 3, N-(Palmitoyl)-Gln-Trp-Ala-Val-ala-His-Leu-NH2] (Palmitoyl-QWAV[dA]HL-NH2), the Kd is not above 500 nM.
To `CCCCCCCC(=O)N[C@@H](CCC(N)=O)C(=O)N[C@@H](Cc1c[nH]c2ccccc12)C(=O)N[C@@H](C)C(=O)N[C@H](C(=O)N[C@H](C)C(=O)N[C@@H](Cc1c[nH]cn1)C(N)=O)C(C)C` [Example 4, N-(n-Octanoyl)-Gln-Trp-Ala-Val-ala-His-NH2] (Octanoyl-QWAV[dA]H-NH2) belongs not above 50 nM.
